Test results published in patent publication US20250019385A1, “SPIROCYCLIC ANNULATED 2-AMINO-3-CYANO THIOPHENES AND DERIVATIVES FOR THE TREATMENT OF CANCER” (Boehringer Ingelheim International GmbH, priority 2023, published 2025).
In brackets after ≈: the same amount, converted by molar mass.

Molecular target: KRAS (G12C)::SOS1 protein-protein interaction (Homo sapiens (Human), UniProt P01116, C118S/C51S/C80L/G12C)
Sequence (P01116 other isoform, or with tags, fused parts or gaps G12C/C51S/C80L/C118S): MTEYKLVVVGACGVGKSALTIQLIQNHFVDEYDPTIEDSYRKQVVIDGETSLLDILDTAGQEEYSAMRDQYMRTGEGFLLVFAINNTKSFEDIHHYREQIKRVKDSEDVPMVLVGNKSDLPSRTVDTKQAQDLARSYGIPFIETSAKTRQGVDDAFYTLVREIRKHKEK
Test: KRAS::SOS1 AlphaScreen binding assay (KRAS G12C)
Details: GDP
From the text: (§1) This assay can be used to examine the potency with which compounds according to the invention binding to (mutated) KRAS inhibit the protein-protein interaction between SOS1 and (mutated) KRAS e.g. KRAS G12C, KRAS G12D. […] Low IC50 values in this assay setting are indicative of strong inhibition of protein-protein interaction between SOS1 and KRAS:
(§2) These assays measure the inhibitory effect of compounds on KRAS mutant protein-protein interactions using the Alpha Screen technology by Perkin Elmer.
(§3) The following (mutant) enzyme forms of KRAS and interacting proteins are used in these assays at the given concentrations:
KRAS (G12C) 1-169, N-terminal 6His-tag for purification, cleaved off, C-terminal avi-tag, biotinylated, mutations: C51S, C80L, C118S (in house); final assay concentration 7.5 nM and SOS1 564-1049, N-terminal 229 GST-tag, TEV cleavage site (Viva Biotech Ltd); final assay concentration 5 nM;
(§4) Test compounds dissolved in DMSO are dispensed onto assay plates (Proxiplate 384 PLUS, white, PerkinElmer; 6008289) using an Access Labcyte Workstation with the Labcyte Echo 55x. For the chosen highest assay concentration of 100 μM, 150 nL of compound solution are transferred from a 10 mM DMSO compound stock solution. A series of eleven fivefold dilutions per compound are transferred to the assay plate, compound dilutions are tested in duplicates. DMSO are added as backfill to a total volume of 150 nL.
(§5) The assays run on a fully automated robotic system in a darkened room below 100 Lux. To 150 nl of compound dilution 10 μl of a mix including KRAS mutant protein, SOS1 (final assay concentrations see above) and GDP nucleotide (Sigma G7127; final assay concentration 10 μM) in assay buffer (1×PBS, 0.1% BSA, 0.05% Tween 20) are added into columns 1-24.
(§6) After 30 minutes incubation time 5 μl of Alpha Screen bead mix in assay buffer are added into columns 1-23. Bead mix consists of AlphaLISA Glutathione Acceptor Beads (PerkinElmer, Cat No AL109) and AlphaScreen Streptavidin Donor Beads (PerkinElmer Cat No 6760002) in assay buffer at a final assay concentration of 10 μg/mL each.
(§7) Plates are kept at room temperature in a darkened incubator. After an additional 60 minutes incubation time the signal is measured in a PerkinElmer Envision HTS Multilabel Reader using the AlphaScreen specs from PerkinElmer.
(§8) Each plate contains up to 16 wells of a negative control depending on the dilution procedure (platewise or serial) (DMSO instead of test compound; with KRAS mutant::SOS1 GOP mix and bead mix; column 23) and 16 wells of a positive control (DMSO instead of test compound; with KRAS mutant::SOS1 GOP mix w/o bead mix; column 24).
(§9) As internal control known inhibitors of KRAS mutant::SOS1 interaction can be measured on each compound plate.
(§10) IC50 values are calculated and analyzed with Boehringer Ingelheim's MEGALAB C50 application using a 4 parametric logistic model.
(§11) Tables of example compounds disclosed herein contain IC50 values determined using the above assays (see Table 43).
Molecule `C[C@H](Oc1nc(-c2noc3c2CCC[C@@]32CCCc3sc(N)c(C#N)c32)nc2c1CNC[C@]21CCOC1)[C@@H]1CCCN1C` [II-15] has an IC50 of 2 nM. `C[C@@H]1COC[C@H](n2c(=O)n(C)c3c(O[C@@H](C)[C@@H]4CCCN4C)nc(-c4onc5c4CCC[C@@]54CCCc5sc(N)c(C#N)c54)nc32)C1` [I-44] gave an IC50 of 2 nM. `C[C@H](Oc1nc(-c2onc3c2CCC[C@@]32CCCc3sc(N)c(C#N)c32)nc2c1n(C)c(=O)n2[C@@H]1CCOC1)C12CCCN1CCC2` [I-25] showed an IC50 of 2 nM. In the case of `CO[C@H]1CCN(C)[C@@H]1[C@H](C)Oc1nc(-c2onc3c2CCC[C@@]32CCCc3sc(N)c(C#N)c32)nc2c1n(C)c(=O)n2[C@@H]1CCOC1` [I-23], the IC50 is reported as 1 nM. For `Cc1cc2c(O[C@@H](C)[C@@H]3CCCN3C)nc(-c3onc4c3CCC[C@@]43CCCc4sc(N)c(C#N)c43)nc2n1[C@@H]1CCOC1` [I-40], the IC50 was 2 nM. For `CO[C@H]1C[C@H](n2c(=O)n(C)c3c(O[C@@H](C)[C@@H]4CCCN4C)nc(-c4onc5c4CCC[C@@]54CCCc5sc(N)c(C#N)c54)nc32)C1` [I-16], the IC50 was 5 nM.

Molecular target: KRAS (G12D)::SOS1 protein-protein interaction (Homo sapiens (Human), UniProt P01116, G12D)
Sequence (P01116 other isoform, or with tags, fused parts or gaps G12D): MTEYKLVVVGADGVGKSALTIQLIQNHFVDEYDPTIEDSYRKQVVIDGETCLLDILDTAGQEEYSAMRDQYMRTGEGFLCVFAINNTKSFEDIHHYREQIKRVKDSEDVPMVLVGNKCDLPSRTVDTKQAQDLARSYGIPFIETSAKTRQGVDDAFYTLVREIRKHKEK
Test: KRAS::SOS1 AlphaScreen binding assay (KRAS G12D)
Details: GDP
From the text: as §1, §2, §3
KRAS (G12D) 1-169, N-terminal 6His-tag, C-terminal avi-tag (Xtal BioStructures, Inc.); final assay concentration 10 nM and SOS1 564-1049, N-terminal 229 GST-tag, TEV cleavage site (Viva Biotech Ltd); final assay concentration 5 nM;
as §4, §5, §6, §7, §8, §9, §10, §11
With `C[C@H](Oc1nc(-c2noc3c2CCC[C@@]32CCCc3sc(N)c(C#N)c32)nc2c1CNC[C@]21CCOC1)[C@@H]1CCCN1C` [II-15] the IC50 was 1 nM. `C[C@@H]1COC[C@H](n2c(=O)n(C)c3c(O[C@@H](C)[C@@H]4CCCN4C)nc(-c4onc5c4CCC[C@@]54CCCc5sc(N)c(C#N)c54)nc32)C1` [I-44] gave an IC50 of 1 nM. In the case of `C[C@H](Oc1nc(-c2onc3c2CCC[C@@]32CCCc3sc(N)c(C#N)c32)nc2c1n(C)c(=O)n2[C@@H]1CCOC1)C12CCCN1CCC2` [I-25], the IC50 is reported as 2 nM. For `CO[C@H]1CCN(C)[C@@H]1[C@H](C)Oc1nc(-c2onc3c2CCC[C@@]32CCCc3sc(N)c(C#N)c32)nc2c1n(C)c(=O)n2[C@@H]1CCOC1` [I-23], the IC50 was 1 nM. In the case of `Cc1cc2c(O[C@@H](C)[C@@H]3CCCN3C)nc(-c3onc4c3CCC[C@@]43CCCc4sc(N)c(C#N)c43)nc2n1[C@@H]1CCOC1` [I-40], the IC50 is reported as 2 nM. Work on `CO[C@H]1C[C@H](n2c(=O)n(C)c3c(O[C@@H](C)[C@@H]4CCCN4C)nc(-c4onc5c4CCC[C@@]54CCCc5sc(N)c(C#N)c54)nc32)C1` [I-16] yielded an IC50 of 12 nM.

Test system: MKN1 cells
Test: MKN1 CTG proliferation assay (120 h) (gastric cancer, wt amplified)
Format: cell-based
Details: Homo sapiens, MKN-1
Description: MKN1 cells (JCRB0252) are dispensed into black 384-well plates, flat and clear bottom (Greiner, PNr. 781091) at a density of 200 cells per well in 60 μl RPMI-1640 ATCC-Formulation (Gibco #A10491)+10% FCS (fetal calf serum, HyClone, SH30084.03). Cells are incubated overnight at 37° C. in a humidified tissue culture incubator at 5% CO2. Compounds (10 mM stock in DMSO) are added at logarithmic dose series using the ECHO acoustic liquid handler system (Beckman Coulter), normalizing for added DMSO and including DMSO controls. All compound treatments are performed in technical duplicates. For the TO time point measurement, untreated cells are analyzed at the time of compound addition. Plates are incubated for 120 h, and cell viability is measured using CellTiter-Glo luminescent cell viability reagent (Promega product code G7570). Viability (stated as percent of control) is defined as relative luminescence units RLU of each well divided by the RLU of cells in DMSO controls. IC50 values are determined from viability measurements by non-linear regression using a four-parameter model.
IC50 values of representative compounds according to the invention measured with these assays in the indicated cell lines are presented in Table 46.
With `C[C@H](Oc1nc(-c2noc3c2CCC[C@@]32CCCc3sc(N)c(C#N)c32)nc2c1CNC[C@]21CCOC1)[C@@H]1CCCN1C` [II-15] the IC50 was 3 nM. With `C[C@@H]1COC[C@H](n2c(=O)n(C)c3c(O[C@@H](C)[C@@H]4CCCN4C)nc(-c4onc5c4CCC[C@@]54CCCc5sc(N)c(C#N)c54)nc32)C1` [I-44] the IC50 was 10 nM. `C[C@H](Oc1nc(-c2onc3c2CCC[C@@]32CCCc3sc(N)c(C#N)c32)nc2c1n(C)c(=O)n2[C@@H]1CCOC1)C12CCCN1CCC2` [I-25] showed an IC50 of 48 nM. `CO[C@H]1CCN(C)[C@@H]1[C@H](C)Oc1nc(-c2onc3c2CCC[C@@]32CCCc3sc(N)c(C#N)c32)nc2c1n(C)c(=O)n2[C@@H]1CCOC1` [I-23] showed an IC50 of 6 nM. `Cc1cc2c(O[C@@H](C)[C@@H]3CCCN3C)nc(-c3onc4c3CCC[C@@]43CCCc4sc(N)c(C#N)c43)nc2n1[C@@H]1CCOC1` [I-40] showed an IC50 of 217 nM. With `CO[C@H]1C[C@H](n2c(=O)n(C)c3c(O[C@@H](C)[C@@H]4CCCN4C)nc(-c4onc5c4CCC[C@@]54CCCc5sc(N)c(C#N)c54)nc32)C1` [I-16] the IC50 was 353 nM.

Test system: not listed separately
Test: Solubility measurement (DMSO solution precipitation method)
Format: physicochemical
Details: aqueous buffer, kinetic from dmso stock, McIlvaine buffer pH 4.5, 24 h, read-out: solubility pH 4.5
Description: A 10 mM DMSO stock solution of a test compound is used to determine its aq. solubility. The DMSO solution is diluted with an aq. medium (McIlvaine buffer with pH=4.5 or 6.8) to a final concentration of 250 μM. After 24 h of shaking at ambient temperature a potentially formed precipitate is removed by filtration. The concentration of the test compound in the filtrate is determined by LC-UV methods by calibrating the signal to the signal of a reference solution with complete dissolution of the test compound in acetonitrile/water (1:1) with known concentration.
For `C[C@H](Oc1nc(-c2noc3c2CCC[C@@]32CCCc3sc(N)c(C#N)c32)nc2c1CNC[C@]21CCOC1)[C@@H]1CCCN1C` [II-15], the solubility at 24 h was > 147 µg/mL. In the case of `C[C@@H]1COC[C@H](n2c(=O)n(C)c3c(O[C@@H](C)[C@@H]4CCCN4C)nc(-c4onc5c4CCC[C@@]54CCCc5sc(N)c(C#N)c54)nc32)C1` [I-44], the solubility at 24 h is reported as > 157 µg/mL. With `C[C@H](Oc1nc(-c2onc3c2CCC[C@@]32CCCc3sc(N)c(C#N)c32)nc2c1n(C)c(=O)n2[C@@H]1CCOC1)C12CCCN1CCC2` [I-25] the solubility at 24 h was > 155 µg/mL. With `CO[C@H]1CCN(C)[C@@H]1[C@H](C)Oc1nc(-c2onc3c2CCC[C@@]32CCCc3sc(N)c(C#N)c32)nc2c1n(C)c(=O)n2[C@@H]1CCOC1` [I-23] the solubility at 24 h was > 157 µg/mL. With `Cc1cc2c(O[C@@H](C)[C@@H]3CCCN3C)nc(-c3onc4c3CCC[C@@]43CCCc4sc(N)c(C#N)c43)nc2n1[C@@H]1CCOC1` [I-40] the solubility at 24 h was > 124 µg/mL. In the case of `CO[C@H]1C[C@H](n2c(=O)n(C)c3c(O[C@@H](C)[C@@H]4CCCN4C)nc(-c4onc5c4CCC[C@@]54CCCc5sc(N)c(C#N)c54)nc32)C1` [I-16], the solubility at 24 h is reported as > 154 µg/mL.

Same assay, conditions: aqueous buffer, kinetic from dmso stock, McIlvaine buffer pH 6.8, 24 h, read-out: solubility pH 6.8
In the case of `C[C@H](Oc1nc(-c2noc3c2CCC[C@@]32CCCc3sc(N)c(C#N)c32)nc2c1CNC[C@]21CCOC1)[C@@H]1CCCN1C` [II-15], the solubility at 24 h is reported as > 148 µg/mL. Work on `C[C@@H]1COC[C@H](n2c(=O)n(C)c3c(O[C@@H](C)[C@@H]4CCCN4C)nc(-c4onc5c4CCC[C@@]54CCCc5sc(N)c(C#N)c54)nc32)C1` [I-44] yielded a solubility at 24 h of 2 µg/mL (≈ 3.04 µM). In the case of `C[C@H](Oc1nc(-c2onc3c2CCC[C@@]32CCCc3sc(N)c(C#N)c32)nc2c1n(C)c(=O)n2[C@@H]1CCOC1)C12CCCN1CCC2` [I-25], the solubility at 24 h is reported as > 154 µg/mL. `CO[C@H]1CCN(C)[C@@H]1[C@H](C)Oc1nc(-c2onc3c2CCC[C@@]32CCCc3sc(N)c(C#N)c32)nc2c1n(C)c(=O)n2[C@@H]1CCOC1` [I-23] showed a solubility at 24 h of 36 µg/mL (≈ 54.5 µM). For `Cc1cc2c(O[C@@H](C)[C@@H]3CCCN3C)nc(-c3onc4c3CCC[C@@]43CCCc4sc(N)c(C#N)c43)nc2n1[C@@H]1CCOC1` [I-40], the solubility at 24 h was 44 µg/mL (≈ 71.7 µM). For `CO[C@H]1C[C@H](n2c(=O)n(C)c3c(O[C@@H](C)[C@@H]4CCCN4C)nc(-c4onc5c4CCC[C@@]54CCCc5sc(N)c(C#N)c54)nc32)C1` [I-16], the solubility at 24 h was > 138 µg/mL.
